According to paper PMC10747733, “N-Substituted 2-(Benzenosulfonyl)-1-Carbotioamide Derivatives Exert Antimicrobial and Cytotoxic Effects via Aldehyde Dehydrogenase Pathway: Synthesis, In Silico and In Vitro Studies” (Pharmaceuticals, 2023):
Values after ≈ are worked out from the molar mass of the structure shown. “Also recorded” adds a separate entry of the source.

Experiments:
Gram-positive bacteria = experiment: Broth microdilution, summary over reference Gram-positive bacteria; format: cell-based; conditions: for share of reference Gram-positive strains with moderate activity: moderate activity: MIC 126–500 µg/mL; for share of reference Gram-positive strains with moderate activity / share of reference Gram-positive strains with no activity / share of reference Gram-positive strains with mild activity / share of reference Gram-positive strains with good activity: 8 strains; for share of reference Gram-positive strains with no activity: no activity: MIC > 1000 µg/mL; for share of reference Gram-positive strains with mild activity: mild activity: MIC 501–1000 µg/mL; for share of reference Gram-positive strains with good activity: good activity: MIC 26–125 µg/mL
Text: Reference strains of microorganisms that came from American Type Culture Collection (ATCC) (Manassas, VA, USA) were used for this study. The representative Gram-positive bacteria were as follows: Staphylococcus aureus ATCC 25923, Staphylococcus aureus ATCC 29213, Staphylococcus aureus ATCC 43300, Staphylococcus epidermidis ATCC 12228, Enterococcus faecalis ATCC 29212, Micrococcus luteus ATCC 10240, Bacillus subtilis ATCC 6633 and Bacillus cereus ATCC 10876. While, those of Gram-negative bacteria were as follows: Bordetella bronchiseptica ATCC 4617, Escherichia coli ATCC 25922, Klebsiella pneumoniae ATCC 13883, Proteus mirabilis ATCC 12453, Salmonella Typhimurium ATCC 14028 and Pseudomonas aeruginosa ATCC 9027. Moreover, the following fungi belonging to yeasts were used: Candida albicans ATCC 10231, Candida albicans ATCC 2091, Candida parapsilosis ATCC 22019, Candida glabrata ATCC 90030 and Candida krusei ATCC 14243.
The new compounds WZ1–WZ4 were assayed for both antibacterial and antifungal activity using the broth microdilution method in accordance with the European Committee on Antimicrobial Susceptibility Testing (EUCAST) and Clinical and Laboratory Standards Institute (CLSI) guidelines. The microorganisms were grown at 35 °C for 18–24 h on appropriate media (nutrient agar and Sabouraud for bacteria and fungi, respectively) (BioMaxima S.A., Lublin, Poland). Next, microbial suspensions with an optical density of 0.5 McFarland standard scale (in sterile 0.85% NaCl) were prepared. In turn, the tested compounds were initially diluted at 50 mg/mL in dimethyl sulfoxide (DMSO) and the broth microdilution method was used to assess their minimum inhibitory concentrations (MICs). For these studies, selective broth Mueller-Hinton (MH) (BioMaxima S.A., Lublin, Poland) and RPMI (Roswell Park Memorial Institute) 1640 with MOPS (3-(N-Morpholino)propanesulfonic acid) (Sigma-Aldrich Chemicals, St. Louis, MO, USA) were used for bacteria and fungi, respectively. The antimicrobial effect of compounds WZ1–WZ4 was determined in the concentration range from 2000 to 0.98 µg/mL.
Then, the microbial suspensions were introduced into each well of the microplate and incubated for 18–24 h at 35 °C. […] The reference drugs ciprofloxacin or vancomycin (against bacteria) and nystatin (against fungi) (Sigma-Aldrich Chemicals, St. Louis, MO, USA) were also used. Next, the values of the minimum bactericidal concentration (MBC) and minimum fungicidal concentration (MFC) of WZ1–WZ4 were assessed. For this purpose, the cultures from each MIC determination well were transferred to a suitable solid medium and incubated under appropriate conditions. The lowest concentrations of compounds without microbial growth were read as MBC or MFC. The studies were performed in triplicate and representative data were gathered.
In turn, the MBC/MIC or MFC/MIC ratios were used to assess bactericidal/fungicidal (MBC/MIC or MFC/MIC ≤ 4) and bacteriostatic/fungistatic (MBC/MIC or MFC/MIC > 4) effect of these compounds [93].

ALDH1A1 = ALDH1A1 concentration by ELISA in HepG2 cells; format: cell-based, human; conditions: compound at IC25, 48 h
Description: The effect of compounds WZ1–WZ4 on ALDHA1 levels was investigated (Figure 10). The Du145, HepG2 and 769-P cell lines were treated with the calculated IC25 values for each compound.
Selected cell lines, viz HepG2, Du145 and 769-P, were seeded into 6-well plates and incubated for 24 h after seeding with compounds at a concentration equal to IC25. After a further 24 h or 48 h, cells were detached with trypsin and centrifuged. The resulting cell pellet was resuspended in 0.5 mL PBS. The samples were then sonicated, and protein was determined using the Bradford method (Bio-rad; Hercules, CA, USA). Samples were equilibrated to 10 mg/mL of protein, and ALDH1A1 was determined in the samples prepared in this way. ALDH1A1 determination was performed using an ELISA (SEE824Hu; Cloud Clone Corp., Katy, TX, USA), according to the manufacturer’s protocol.

Gram-negative bacteria = experiment: Broth microdilution, summary over reference Gram-negative bacteria; format: cell-based
Text: Reference strains of microorganisms that came from American Type Culture Collection (ATCC) (Manassas, VA, USA) were used for this study. The representative Gram-positive bacteria were as follows: Staphylococcus aureus ATCC 25923, Staphylococcus aureus ATCC 29213, Staphylococcus aureus ATCC 43300, Staphylococcus epidermidis ATCC 12228, Enterococcus faecalis ATCC 29212, Micrococcus luteus ATCC 10240, Bacillus subtilis ATCC 6633 and Bacillus cereus ATCC 10876. […]
The new compounds WZ1–WZ4 were assayed for both antibacterial and antifungal activity using the broth microdilution method in accordance with the European Committee on Antimicrobial Susceptibility Testing (EUCAST) and Clinical and Laboratory Standards Institute (CLSI) guidelines. […] The antimicrobial effect of compounds WZ1–WZ4 was determined in the concentration range from 2000 to 0.98 µg/mL.
Then, the microbial suspensions were introduced into each well of the microplate and incubated for 18–24 h at 35 °C. […] Next, the values of the minimum bactericidal concentration (MBC) and minimum fungicidal concentration (MFC) of WZ1–WZ4 were assessed. […] The lowest concentrations of compounds without microbial growth were read as MBC or MFC. […]

[1] = almost all Gram-positive bacteria

SMILES	MIC (Gram-positive bacteria; Enterococcus faecalis, Gram-positive bacteria except E. faecalis) [µg/mL]	MIC (Gram-positive bacteria; [1]) [µg/mL]	share of reference Gram-positive strains with moderate activity (Gram-positive bacteria) [%]	share of reference Gram-positive strains with no activity (Gram-positive bacteria) [%]	share of reference Gram-positive strains with mild activity (Gram-positive bacteria) [%]	MIC (Gram-positive bacteria; most Gram-positive bacteria) [µg/mL]	ALDH1A1 concentration compared to control (ALDH1A1)	MIC (Gram-negative bacteria; Gram-negative rods from Enterobacterales and Pseudomonas aeruginosa) [µg/mL]	MIC (Gram-negative bacteria; remaining Gram-negative bacteria (other than B. bronchiseptica and E. coli)) [µg/mL]	MIC (Gram-positive bacteria; Bacillus subtilis, remaining Gram-positive microorganisms (other than B. subtilis)) [µg/mL]	share of reference Gram-positive strains with good activity (Gram-positive bacteria) [%]	MBC/MIC ratio (Gram-positive bacteria; most Gram-positive bacteria)	MIC (Gram-positive bacteria; Staphylococcus aureus ATCC 43300, Staphylococcus aureus ATCC 25923 and Micrococcus luteus) [µg/mL]	MIC (Gram-positive bacteria; Staphylococcus epidermidis, Bacillus subtilis and Bacillus cereus) [µg/mL]
O=S(=O)(NNC(=S)NC1CCCCC1)c1ccccc1 [WZ1, 2-(Benzenesulfonyl)-N-Cyclohexylhydrazine-1-Carbothioamide]	250 to 500 (≈ 798 to 1600 µM)	62.5 to 500 (≈ 199 to 1600 µM)	87.5	12.5										
CCCCNC(=S)NNS(=O)(=O)c1ccccc1 [WZ2, 2-(Benzenesulfonyl)-N-Butylhydrazine-1-Carbothioamide]				37.5	62.5	1000 (≈ 3480 µM)	increase; also recorded: increased levels							
CCCCCCNC(=S)NNS(=O)(=O)c1ccccc1 [WZ3, 2-(Benzenesulfonyl)-N-Hexylhydrazine-1-Carbothioamide]		62.5 to 500 (≈ 198 to 1580 µM)	87.5					500 to 1000 (≈ 1580 to 3170 µM)	1000 (≈ 3170 µM)	250 to 500 (≈ 792 to 1580 µM)	12.5	1–4		
CNC(=S)NNS(=O)(=O)c1ccccc1 [WZ4, 2-(Benzenesulfonyl)-N-Methylhydrazine-1-Carbothioamide]		62.5 to 500 (≈ 255 to 2040 µM)	37.5		25		increase; also recorded: increased levels				37.5	1–4	250 to 500 (≈ 1020 to 2040 µM)	62.5 to 125 (≈ 255 to 510 µM)
